Source: ChEMBL document CHEMBL2406904, “Mitigation of cardiovascular toxicity in a series of CSF-1R inhibitors, and the identification of AZD7507” (Bioorg Med Chem Lett, 2013)

Key:
Type in all cases: ADME, organism-based
[1] = Half life in rat at 10 mg/kg, po and 3 mg/kg, iv; settings: in vivo
[2] = Volume of distribution at steady state in rat at 10 mg/kg, po and 3 mg/kg, iv; settings: in vivo, read-out: Vdss
[3] = Oral bioavailability in rat at 10 mg/kg; settings: in vivo
[4] = Clearance in rat at 10 mg/kg, po; set-up: dose 10 mg/kg, route oral; settings: in vivo

Structure (SMILES): COc1cc2nnc(C(N)=O)c(Nc3ccc(C)cc3F)c2cc1N1CCCN(CCO)CC1
- half-life [1]: 0.9 h
- Vd [2]: 2.2 L/kg
- bioavailability [3]: 4%
- CL/F [4]: 66 mL/min/kg

Structure (SMILES): COc1cc2nnc(C(N)=O)c(Nc3ccc(C)cc3F)c2cc1N1CCOCC1
- half-life [1]: 0.5 h
- Vd [2]: 1.7 L/kg
- bioavailability [3]: 25%
- CL/F [4]: 60 mL/min/kg

Structure (SMILES): COc1cc2nnc(C(N)=O)c(Nc3ccc(C)cc3F)c2cc1N1CCN(S(C)(=O)=O)CC1
- half-life [1]: 1.5 h
- Vd [2]: 1.7 L/kg
- bioavailability [3]: 3%
- CL/F [4]: 22 mL/min/kg

Structure (SMILES): COc1cc2nnc(C(N)=O)c(Nc3ccc(C)cc3F)c2cc1N1CCC(N(C)C)CC1
- half-life [1]: 0.9 h
- Vd [2]: 2.2 L/kg
- bioavailability [3]: 15%
- CL/F [4]: 34 mL/min/kg

Structure (SMILES): COc1cc2nnc(C(N)=O)c(Nc3ccc(C)cc3F)c2cc1N1CCC(OC)CC1
- half-life [1]: 0.6 h
- Vd [2]: 1.8 L/kg
- bioavailability [3]: 21%
- CL/F [4]: 58 mL/min/kg

Structure (SMILES): COc1cc2nnc(C(N)=O)c(Nc3ccc(C)cc3F)c2cc1C1CCN(CCO)CC1
- half-life [1]: 6.1 h
- Vd [2]: 3.1 L/kg
- bioavailability [3]: 100%
- CL/F [4]: 8 mL/min/kg

Structure (SMILES): COc1cc2nnc(C(N)=O)c(Nc3ccc(C)cc3F)c2cc1C1CCN(C(C)C)CC1
- half-life [1]: 3.5 h
- Vd [2]: 2.6 L/kg
- bioavailability [3]: 100%
- CL/F [4]: 14 mL/min/kg

Structure (SMILES): COc1cc2nnc(C(N)=O)c(Nc3ccc(C)cc3F)c2cc1N1CCN(C(=O)[C@@H](C)O)CC1
- half-life [1]: 0.9 h
- Vd [2]: 1.3 L/kg
- bioavailability [3]: 53%
- CL/F [4]: 24 mL/min/kg

Structure (SMILES): COc1cc2nnc(C(N)=O)c(Nc3ccc(C)cc3F)c2cc1N1CCN(C(C)C)CC1
- half-life [1]: 2.5 h
- Vd [2]: 3.8 L/kg
- bioavailability [3]: 100%
- CL/F [4]: 17 mL/min/kg

Structure (SMILES): COc1cc2nnc(C(N)=O)c(Nc3ccc(C)cc3F)c2cc1N1C[C@@H](C)N[C@@H](C)C1
- half-life [1]: 4.4 h
- Vd [2]: 1.6 L/kg
- bioavailability [3]: 61%
- CL/F [4]: 4 mL/min/kg

Structure (SMILES): COc1cc2nnc(C(N)=O)c(Nc3ccc(C)cc3F)c2cc1N1CCN(CCO)CC1
- half-life [1]: 3.1 h
- Vd [2]: 2.2 L/kg
- bioavailability [3]: 42%
- CL/F [4]: 7 mL/min/kg

Structure (SMILES): COc1cc2nnc(C(N)=O)c(Nc3ccc(C)cc3F)c2cc1N1CCN(C)CC1
- half-life [1]: 5.7 h
- Vd [2]: 3.8 L/kg
- bioavailability [3]: 100%
- CL/F [4]: 12 mL/min/kg

Structure (SMILES): COCCN1CCN(c2cc3c(Nc4ccc(C)cc4F)c(C(N)=O)nnc3cc2OC)CC1
- half-life [1]: 7.6 h
- Vd [2]: 4.3 L/kg
- bioavailability [3]: 3%
- CL/F [4]: 21 mL/min/kg
